Experimental data taken from US9981983B2, “Thienopyranones as kinase inhibitors” (SignalRx Pharmaceuticals, Inc., priority 2008, dated 2018).
Like-named read-outs stand apart in the source and are kept apart here. One block for each compound: values may come before it. Starred links: 1 amine or outer side, 2 acyl side, 3 side chain; linkers in the order of their positions; H or OH if unused. Positions of bridges follow the written chain, without caps; N, C: chain ends. Non-standard residues stand in square brackets, D forms with d. Residues, ends and D or L forms follow the SMILES beside them. Chains are numbered I, II in the order given. Actinocin(9to1) = Cc1c2oc3c(C)ccc(C(=O)[*:1])c3nc-2c(C(=O)[*:2])c(N)c1=O; NMeV = CN[C@H](C(=O)O)C(C)C; Sar = CNCC(=O)O

How the values were obtained:
[1] = tested on: MCF7 breast cancer cells; assay: Mammosphere cancer stem cell inhibition assay; type: cell-based; details: 1 μM
Protocol: A mammosphere cancer stem cell inhibition assay was set up using literature methods (T. M. Phillips et al. J. Natl. Cancer I. 2006, 98, 1777-1785, “Mammalian target of rapamycin contributes to the acquired apoptotic resistance of human mesothelioma multicellular spheroids”) using a subset of MCF7 breast cancer cells that posses the ability to evade anchorage independent apoptosis. Commercially available MCF7 breast cancer cells were cultured in MEM supplemented with 0.01 mg/mL of bovine insulin and 10% FBS at 37° C. in humidified atmosphere (5% CO2). Floating cells in the 2-day cultures were collected, washed, and resuspended in DMEM-F12 (50:50) supplemented with 0.4% BSA, 5 μg/mL bovine insulin, 20 ng/mL bFGF, and 10 ng/mL EGF. Cells were then passed through a […] sieve to remove any cell clusters and adjusted to a density of 10,000 cells/mL. Approximately 500 cells were plated in quadruplicate in a sterile poly-HEMA-treated 96-well plate. Cells were then treated with either control or test solutions consisting of the kinase inhibitor Lapatinib (1 μM), Cpd 28 (1 or 10 μM), Cpd 55 (1 or 10 μM), The numbers of mammospheres (clusters of cells numbering more than 4 or 5 per cluster) were then counted after 5-7 days.

[2] = tested on: breast cancer stem cells; details: women with breast tumors with high HER2; decreased from 11%; cited from earlier work
[3] = target: mTOR (Homo sapiens, UniProt P42345); assay: mTOR inhibition; type: biochemical
[4] = tested on: pAKT serine 473 level in PC3 cells; assay: pAKT status in IGF-1 stimulated PC3 cells (Ser473 pAKT ELISA); type: cell-based; details: Homo sapiens, PC-3
Protocol: (§1) PC3 cells were obtained from the American Type Culture Collection (ATCC, Manassas, Va., Cat.# CRL-1435). Two million cells from the prostate cancer line PC3 were placed into 6 cm culture dishes and allowed to grow in complete RPMI 1640 media (Invitrogen, Carlsbad, Calif., Cat.#22400-105) with 10% fetal bovine serum (Invitrogen, Carlsbad, Calif., Cat.#10438-026). After this time period the cells were serum starved for 5 hours followed by application of the test compound. Test compound was added as a DMSO (dimethyl sulfoxide) solution such that the final DMSO concentration in the cell media was less than or equal to 0.2% by volume After 30 minutes of exposure the growth factor stimulant, human IGF-1 (PeproTech, Inc., Rocky Hill, N.J., Cat.#100-11), was added to a final concentration of 0.1 μg/ml in each well. After 30 minutes of IGF-1 exposure, cells were removed from the media and cell lysates were prepared using RIPA Lysis buffer (Upstate, Lake Placid, N.Y., Cat.#20-188), keeping on ice. The pAKT serine 473 level was measured in duplicate samples of the cell lysates using commercially available assays such as the Pathscan® Sandwich ELISA kit for Ser473 pAKT (Cell Signaling, Danvers, Mass., Cat.#7160). A SpectraMax Plus spectrophotometric plate reader (Molecular Devices, Sunnydale, Calif.) was used to measure the optical density signal for pAKT at 450 nm (OD450 nm). The pAKT OD450 nm readings were normalized by total protein amount in the cell lysates determined by standard methods.
(§2) Concentrations of test compounds required to inhibit IGF stimulated pAKT levels to 50% of maximum levels in PC3 cells (termed DM50 for decreased maximum 50%) were calculated by inputting the dose responses in the software package GraphPad Prism4 (GraphPad Software, Inc., San Diego, Calif.).
By these methods a number of compounds of the invention were evaluated and the concentration needed to reduce the detectable pAKT to 50% of the maximal uninhibited signal was calculated. These values (in μMolar units) are listed in Table 8 under the column heading PC3 pAKT IC50 (μMolar).

[5] = tested on: pAKT in H1299 cells; assay: pAKT status DM50, H1299; type: cell-based; details: Homo sapiens, NCI-H1299; H1299, non-small cell lung cancer
Protocol: as §1, §2
(§3) Several other cancer cell lines were obtained from ATCC and grown according to the supplier's recommendations and treated with test compounds. DM50 values listed in Table 6 below were obtained by the methods described in Example A: […]

[6] = tested on: pAKT in BT-474 cells; assay: pAKT status DM50, BT-474; type: cell-based; details: Homo sapiens; BT-474, breast cancer
Protocol: as §1, §2, §3

[7] = tested on: pAKT in 786-O cells; assay: pAKT status DM50, 786-O; type: cell-based; details: Homo sapiens, 786-0, renal cell carcinoma
Protocol: as §1, §2, §3

[8] = tested on: H1299 cells; assay: Cellular proliferation (Example B method), H1299; type: cell-based; details: Homo sapiens, NCI-H1299; H1299, non-small cell lung cancer
Protocol: (§4) PC3 cells were obtained from the American Type Culture Collection (ATCC, Manassas, Va., Cat.# CRL-1435) Two thousand cells from the prostate cancer line PC3 were placed in 50 μL of complete RPMI 1640 media (Invitrogen, Carlsbad, Calif., Cat.#22400-105) with 10% fetal bovine serum (Invitrogen, Carlsbad, Calif., Cat.#10438-026) into each well of 96 well cell culture plates in a hexaplicate sampling pattern. A 50 μL aliquot of test compound (prepared from stock test compounds in DMSO diluted into media) was added to the appropriate well such that the final concentrations of test compound were 200, 40, 8, 1.6, 0.32, 0.064, 0.0128, 0.00256, and 0 μM and the final DMSO concentration was less than or equal to 0.2%.
(§5) The plates were incubated for 72 hours 37° C. in an atmosphere of 5% CO2. At the end of this time a 10 μL aliquot of WST solution (Roche Applied Science, Mannheim, Germany) was added into each of the wells. Cells were exposed to the WST solution for 4 hours. A SpectraMax Plus spectrophotometric plate reader (Molecular Devices, Sunnydale, Calif.) was then used to measure the optical density at 450 nm (OD450 nm). Sigmoidal curves were drawn for the dose responses and IC50 values were calculated using the software package GraphPad Prism4 (GraphPad Software, Inc., San Diego, Calif.).
(§6) Several other cancer cell lines were obtained from ATCC and grown according to their recommendations and treated with test compounds to obtain the concentration of test compound that inhibited the cellular proliferation by 50% of no-treatment controls. These IC50 values (μM) are listed in Table 7 below obtained by the methods described in Example B: […]

[9] = tested on: BT-474 cells; assay: Cellular proliferation (Example B method), BT-474; type: cell-based; details: Homo sapiens; BT-474, breast cancer
Protocol: as §4, §5, §6

[10] = tested on: 786-O cells; assay: Cellular proliferation (Example B method), 786-O; type: cell-based; details: Homo sapiens, 786-0, renal cell carcinoma
Protocol: as §4, §5, §6

[11] = tested on: 786-0 cells; assay: Apoptosis in 786-0 cells (Annexin V / PI flow cytometry); type: cell-based; set-up: unit not given here; details: 200 ng/mL
Protocol: In order to evaluate the mechanism of action of these compounds, 786-0 cell cultures were treated with Cpd 9 or Cpd 28 at different concentrations overnight and then analyzed for apoptotic induction. The cells were stained using standard methods with Annexin V and/or Propedium iodine (PI) at room temperature for 15 minutes. Apoptotic cells at early (Annexin V positive) or late stage (both Annexin V and PI positive) were detected by Flow Cytometry.

[12] = tested on: PC3 cells; assay: PC3 prostate cancer cell proliferation (WST); type: cell-based; details: Homo sapiens, PC-3; 72 hours; read-out: IC50 PC3 Proliferation
Protocol: as §4, §5

[13] = IGF-1 stimulated PC3 cells, read-out: PC3 pAKT IC50

SMILES: CS(=O)(=O)CCNCc1ccc(-c2ccc3ncnc(Nc4ccc(OCc5cccc(F)c5)c(Cl)c4)c3c2)o1 [Lapatinib, reference compound]
inhibition of mammosphere production versus control ([1]; first experiment): 33%
number of mammospheres ([1]; first experiment, control 38±4): 26±2 mammospheres
inhibition of mammosphere production versus control ([1]; separate experiment): 55%
number of mammospheres ([1]; separate experiment, control 32±6): 17±4 mammospheres
breast cancer stem cells in biopsies [2]: 5 % of cells

IC50 [3]: 0.61 µM
IC50 [4, 13]: 0.55 µM
IC50 ([4]; PC3 cells, read-out: IC50 pAKT (Pathway Inhibition)): 0.55 µM
IC50 [5]: 3.19 µM
IC50 [6]: 1.25 µM
IC50 [7]: 4.17 µM
IC50 [8]: 5.02 µM
IC50 [9]: 11.6 µM
IC50 [10]: 9.53 µM
SMILES: O=c1cc(N2CCOCC2)oc2c(-c3ccccc3)csc12 [Compound 6, 5-morpholino-3-phenyl-7H-thieno[3,2-b]pyran-7-one]

SMILES: Cc1c2oc3c(C)ccc(C(=O)N[C@@H]4C(=O)N[C@H](C(C)C)C(=O)N5CCC[C@H]5C(=O)N(C)CC(=O)N(C)[C@@H](C(C)C)C(=O)O[C@@H]4C)c3nc-2c(C(=O)N[C@@H]2C(=O)N[C@H](C(C)C)C(=O)N3CCC[C@H]3C(=O)N(C)CC(=O)N(C)[C@@H](C(C)C)C(=O)O[C@@H]2C)c(N)c1=O [Actinomycin D, reference compound] (I: T[dV]P[Sar][NMeV] / II: T[dV]P[Sar][NMeV]; ester I:1-I:C, II:1-II:C; linker I:N-II:N via Actinocin(9to1))
Early stage apoptotic cells [11]: 16.93
Late stage apoptotic cells [11]: 12.63
Total Apoptotic Cells [11]: 29.56

IC50 [4, 13]: 5.29 µM
IC50 [12]: 15.3 µM
SMILES: CS(=O)(=O)c1ccc(-c2csc3c(=O)cc(N4CCOCC4)oc23)cc1 [Compound 13]
